ChEMBL document CHEMBL1914340, “Effect of the leukotriene A4 hydrolase aminopeptidase augmentor 4-methoxydiphenylmethane in a pre-clinical model of pulmonary emphysema” (Bioorg Med Chem Lett, 2011)
Calls of active or inactive are those of the source. The calls are words filed in the database; no cut-off is given here.

Legend:
[1] = target: T1, Leukotriene A-4 hydrolase (Homo sapiens) (UniProt P09960); test: Activation of aminopeptidase activity of LTA4H assessed as compound concentration required to 50% activation using L-alanine-p-nitroanilide as substrate by spectrophotometry
T1 sequence (whole entry): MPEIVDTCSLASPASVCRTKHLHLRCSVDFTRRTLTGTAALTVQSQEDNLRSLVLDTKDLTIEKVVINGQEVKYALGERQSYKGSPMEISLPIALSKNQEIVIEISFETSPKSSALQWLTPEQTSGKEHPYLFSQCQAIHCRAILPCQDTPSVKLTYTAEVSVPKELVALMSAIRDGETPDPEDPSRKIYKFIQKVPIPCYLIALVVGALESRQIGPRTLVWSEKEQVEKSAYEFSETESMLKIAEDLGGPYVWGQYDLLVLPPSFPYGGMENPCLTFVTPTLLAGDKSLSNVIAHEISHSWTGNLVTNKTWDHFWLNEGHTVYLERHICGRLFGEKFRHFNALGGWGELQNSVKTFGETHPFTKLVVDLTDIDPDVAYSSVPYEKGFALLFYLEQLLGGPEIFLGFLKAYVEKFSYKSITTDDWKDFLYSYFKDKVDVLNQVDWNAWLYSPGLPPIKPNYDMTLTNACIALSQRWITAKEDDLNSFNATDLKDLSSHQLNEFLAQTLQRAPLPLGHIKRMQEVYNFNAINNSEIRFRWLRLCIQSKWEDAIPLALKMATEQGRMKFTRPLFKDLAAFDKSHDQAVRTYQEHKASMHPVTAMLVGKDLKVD

Mus musculus [2] = test: Antiemphysema activity in wild type mouse assessed as shorter chord length at 30 mg/kg, ip qd for 28 days measured after 18 hrs of post mortem by volume displacement technique relative to vehicle-treated control; assay type: functional, organism-based; set-up: dose 30 mg/kg
Mus musculus [3] = test: Antiemphysema activity in wild type mouse assessed as reduction in intranasal elastase-induced lung volume at 30 mg/kg, ip qd for 28 days measured after 18 hrs of post mortem by volume displacement technique relative to vehicle-treated control; assay type: functional, organism-based; set-up: dose 30 mg/kg
Mus musculus [4] = test: Antiemphysema activity in wild type mouse assessed as reduction in intranasal elastase-induced lung compliance at 30 mg/kg, ip qd for 28 days by flexivent relative to vehicle-treated control; assay type: functional, organism-based; set-up: dose 30 mg/kg
Mus musculus [5] = test: Effect on intransal elastase-induced LTB4 level in broncho alveolar lavage fluid in ip dosed mouse by ELISA (reference value: 93.1 +/- 26.1 pg/mL); assay type: functional, organism-based
[6] = Chemical stability of the compound assessed as degradation at pH 6.8; assay type: physicochemical; conditions: buffer
[7] = Toxicity in mouse; assay type: organism-based; conditions: in vivo

| Activity [1] [µM] | Activity (Mus musculus [5]) | Compound | Activity (Mus musculus [2]) | Activity (Mus musculus [3]) | Activity (Mus musculus [4]) | Stability [6] | MTD [7] [mg/kg] |
| --- | --- | --- | --- | --- | --- | --- | --- |
| 50 | inactive | COc1ccc(Cc2ccccc2)cc1 | Active | Active | Active | Stable |  |
|  |  | COc1ccc(Oc2ccccc2)cc1 |  |  |  | Unstable | 30 |
